Measurements from patent publication US20260132126A1, “IMIDAZOLE DERIVATIVES” (SANWA KAGAKU KENKYUSHO CO., LTD., priority 2022, published 2026).

Biological target: T1, human α1A adrenergic receptor (Homo sapiens, UniProt P35348)
T1 construct: host or cells: GeneBLAzer ADRA1A-NFAT-bla CHO-K1 cells
T1 sequence (P35348 1-466): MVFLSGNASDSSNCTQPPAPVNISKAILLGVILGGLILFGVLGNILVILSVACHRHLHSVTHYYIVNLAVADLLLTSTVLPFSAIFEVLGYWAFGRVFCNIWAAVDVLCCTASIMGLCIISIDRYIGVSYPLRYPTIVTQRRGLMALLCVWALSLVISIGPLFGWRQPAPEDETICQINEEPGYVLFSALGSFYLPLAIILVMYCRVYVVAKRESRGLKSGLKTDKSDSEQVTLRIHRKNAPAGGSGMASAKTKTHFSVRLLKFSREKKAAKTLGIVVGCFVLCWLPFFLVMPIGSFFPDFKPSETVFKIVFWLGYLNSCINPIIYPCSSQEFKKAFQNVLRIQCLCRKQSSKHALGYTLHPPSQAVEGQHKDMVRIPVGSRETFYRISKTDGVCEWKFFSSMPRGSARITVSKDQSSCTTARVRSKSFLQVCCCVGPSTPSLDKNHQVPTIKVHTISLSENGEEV
Test: Ca2+ mobilization assay in human α1A adrenergic receptor-expressing cells
Assay type: cell-based
Parameters: Emax: dose or concentration left out as unconfirmed
Details: for Emax at 10 µM: % activation at 10 μmol/L test compound, 100 μmol/L norepinephrine = 100%, well without test compound = 0%; for EC50: CHO-K1 cells expressing human α1A adrenergic receptor, Fluo-4 fluorescence, concentration giving 50% response of Emax, 4-parameter logistic regression
Protocol: CHO-K1 cells that highly express a human α1A adrenergic receptor (GeneBLAzer™ ADRA1A-NFAT-bla CHO-K1 Cells) were purchased from Thermo Fisher Scientific, Inc., and cultured according to the instructions.
The cultured human α1A adrenergic receptor-expressing cells were washed with D-PBS, then replaced with a loading buffer (2 μmol/L Fluo-4/AM, 1× PowerLoad, 2.5 mmol/L Probenecid-containing DMEM (high-glucose)) and incubated at 37° C. for 60 minutes in a 5% CO2 incubator. The cells were detached using 0.05% trypsin-EDTA solution, and suspended in an assay buffer ([…], 0.054 mol/L KCl, 1.8 mmol/L CaCl2), 1 mmol/L MgSO4, 0.11 mol/L glucose, 0.01 mol/L NaH2PO4·2H2O, […], pH 7.3) to be 500,000 cells/mL.
Test compounds were dissolved in dimethylsulfoxide, and diluted with an assay buffer containing 0.3% BSA. The final concentrations of the test compounds were set to fall within the range of 0.1 nmol/L to 10 μmol/L. As a reference compound, norepinephrine was set to have a final concentration within the range of 0.01 nmol/L to 100 μmol/L.
On a 384-well clear bottom black plate coated with poly-D-lysine (Corning Inc.), the above-described cell-suspended solution was dispersed in 40 μL each (20,000 cells/well) and allowed to stand for 10 minutes. The plate was transferred to a fluorescent imaging plate reader (FDSS7000, Hamamatsu Photonics K.K.), and measurements were started. After 1 minute from the start of the measurements, 20 μL of the test compound solutions or norepinephrine solution (total amount: 60 μL/well) was added to each well of the plate (final concentration: 0.1% BSA, 0.1% dimethylsulfoxide), and the temporal change in fluorescence intensity of Fluo-4 was further measured for 5 minutes (Ex 480 nm/Em 540 nm).
The normalized values (% activation) were used for subsequent analyses.
Emax values and EC50 values were calculated by creating a concentration-response curve of the test compounds using a 4-parameter logistic regression with XLFit, Emax value being defined as % activation of test compound at the concentration of 10 μmol/L, and EC50 value being defined as the concentration in which 50% response of the Emax values is shown.

Row | SMILES | Emax at 10 µM [%] | EC50 [nM] | Emax [%]
1 | Cc1ncncc1-c1ccc(F)cc1OCc1c[nH]cn1 [Example 64] | 99 | 5.3 | –
2 | c1ccc(-c2cncnc2)c(OCc2c[nH]cn2)c1 [Example 69] | – | 0.9 | 104
3 | c1ccc(-c2cn[nH]c2)c(OCc2c[nH]cn2)c1 [Example 47, 4-(2-((1H-imidazol-4-yl)methoxy)phenyl)-1H-pyrazole] | 95 | 9.9 | –
4 | CC(Nc1ccccc1-c1cccnc1)c1c[nH]cn1 (stereo not shown) [Example 35, N-(1-(1H-Imidazol-4-yl)ethyl)-2-(pyridin-3-yl)aniline] | 90 | 5.1 | –
5 | Cc1n[nH]cc1-c1ccccc1OCc1c[nH]cn1 [Example 49] | 104 | 4.3 | –
6 | c1coc(-c2ccccc2OCc2c[nH]cn2)c1 [Example 45] | 107 | 9.4 | –
7 | CC(Oc1ccccc1-c1cccs1)c1c[nH]cn1 (stereo not shown) [Example 78, 4-(1-(2-(Thiophen-2-yl)phenoxy)ethyl)-1H-imidazole] | 99 | 6.4 | –
8 | c1csc(-c2ccccc2OCc2c[nH]cn2)c1 [Example 46] | 104 | 4.8 | –
9 | COc1cccc(-c2ccccc2NC(C)c2c[nH]cn2)n1 (single isomer, unassigned; (+)) [Example 39, (+)-N-(1-(1H-Imidazol-4-yl)ethyl)-2-(6-methoxypyridin-2-yl)aniline] | 94 | 1.9 | –
10 | Cc1cccnc1-c1cscc1NCc1c[nH]cn1 [Example 16, N-((1H-imidazol-4-yl)methyl)-4-(3-methylpyridin-2-yl)thiophen-3-amine] | 88 | 9.6 | –
11 | Cc1ncncc1-c1ccccc1OCc1c[nH]cn1 [Example 76] | – | 3.3 | 98
12 | c1ncc(-c2cscc2NCc2c[nH]cn2)cn1 [Example 42] | 97 | 7.3 | –
13 | Cc1ccncc1-c1ccccc1OCc1c[nH]cn1 [Example 72] | – | 7.4 | 106
14 | c1cncc(-c2ccccc2SCc2c[nH]cn2)c1 [Example 80, 3-(2-(((1H-Imidazol-4-yl)methyl)thio)phenyl)pyridine] | 101 | 3.4 | –
15 | c1ccc(-c2cnccn2)c(OCc2c[nH]cn2)c1 [Example 68] | – | 2.3 | 100
16 | COc1ncc(F)cc1-c1ccccc1OCc1c[nH]cn1 [Example 61] | 90 | 4.5 | –
17 | CC(Nc1ccccc1-c1cscn1)c1c[nH]cn1 (single isomer, unassigned; (+)) [Example 40, (+)-N-(1-(1H-Imidazol-4-yl)ethyl)-2-(thiazol-4-yl)aniline] | 111 | 0.6 | –
18 | Cc1c(F)cncc1-c1ccccc1OCc1c[nH]cn1 [Example 60] | 90 | 3.2 | –
19 | c1ccc(-c2cnccc2C2CC2)c(OCc2c[nH]cn2)c1 [Example 73] | – | 0.7 | 89
20 | COc1ncccc1-c1ccccc1OCc1c[nH]cn1 [Example 52] | 90 | 2.7 | –
21 | COc1cncc(-c2ccccc2OCc2c[nH]cn2)c1 [Example 53] | 93 | 5.1 | –

Further lines, with some results ahead:

Row | Emax at 10 µM [%] | EC50 [nM] | SMILES | Emax [%]
22 | 101 | 1.1 | c1cnc(-c2cscc2NCc2c[nH]cn2)cn1 [Example 13, N-((1H-imidazol-4-yl)methyl)-4-(pyrazin-2-yl)thiophen-3-amine] | –
23 | 91 | 2.4 | COc1ccncc1-c1ccc(C)cc1OCc1c[nH]cn1 [Example 62] | –
24 | 92 | 0.7 | COc1ccncc1-c1ccc(F)cc1OCc1c[nH]cn1 [Example 63] | –
25 | 96 | 1.3 | Cc1ccc(-c2cnccn2)c(OCc2c[nH]cn2)c1 [Example 66, 2-(2-((1H-Imidazol-4-yl)methoxy)-4-methylphenyl)pyrazine] | –
26 | 91 | 2.4 | Cc1ccc(-c2cncnc2C)c(NCc2c[nH]cn2)c1 [Example 20, N-((1H-imidazol-4-yl)methyl)-5-methyl-2-(4-methylpyrimidin-5-yl)aniline] | –
27 | 92 | 0.3 | c1cncc(-c2cscc2NCc2c[nH]cn2)c1 [Example 3, N-((1H-imidazol-4-yl)methyl)-4-(pyridin-3-yl)thiophen-3-amine] | –
28 | 103 | 2.1 | c1ccc(-c2cscn2)c(OCc2c[nH]cn2)c1 [Example 67, 4-(2-((1H-Imidazol-4-yl)methoxy)phenyl)thiazole] | –
29 | 101 | 0.4 | Cc1ccc(-c2c[nH]nc2C)c(OCc2c[nH]cn2)c1 [Example 59] | –
30 | 98 | 0.3 | COc1cncc(-c2cscc2NCc2c[nH]cn2)c1 [Example 5, N-((1H-imidazol-4-yl)methyl)-4-(5-methoxypyridin-3-yl)thiophen-3-amine] | –
31 | 97 | 1 | Cc1n[nH]cc1-c1ccc(F)cc1OCc1c[nH]cn1 [Example 58] | –
32 | 101 | 0.6 | Cc1ccc(-c2cn[nH]c2)c(OCc2c[nH]cn2)c1 [Example 55] | –
33 | 101 | 2.1 | c1cncc(-c2ccccc2NCc2c[nH]cn2)c1 [Example 9, N-((1H-imidazol-4-yl)methyl)-2-(pyridin-3-yl)aniline] | –
34 | 102 | 1.8 | Fc1cncc(-c2ccccc2OCc2c[nH]cn2)c1 [Example 51] | –
35 | 103 | 0.8 | COc1cncc(-c2cscc2NCc2c[nH]cn2)n1 [Example 31, N-((1H-imidazol-4-yl)methyl)-4-(6-methoxypyrazin-2-yl)thiophen-3-amine] | –
36 | 101 | 0.4 | c1csc(-c2cscc2NCc2c[nH]cn2)n1 [Example 12, N-((1H-imidazol-4-yl)methyl)-4-(thiazol-2-yl)thiophen-3-amine] | –
37 | 90 | 2 | COc1cccnc1-c1cscc1NCc1c[nH]cn1 [Example 17, N-((1H-imidazol-4-yl)methyl)-4-(3-methoxypyridin-2-yl)thiophen-3-amine] | –
38 | 98 | 1.6 | COc1ccncc1-c1ccccc1OCc1c[nH]cn1 [Example 54] | –
39 | 88 | 2.2 | c1nc(CNc2cscc2-c2cscn2)c[nH]1 [Example 14, N-((1H-imidazol-4-yl)methyl)-4-(thiazol-4-yl)thiophen-3-amine] | –
40 | 104 | 1.8 | c1ccc(-c2cncs2)c(NCc2c[nH]cn2)c1 [Example 11, N-((1H-imidazol-4-yl)methyl)-2-(thiazol-5-yl)aniline] | –
41 | 100 | 1.7 | Cc1ncncc1-c1ccc(F)cc1NCc1c[nH]cn1 [Example 25, N-((1H-imidazol-4-yl)methyl)-5-fluoro-2-(4-methylpyrimidin-5-yl)aniline] | –
